Patent US10398727B2, “Methods for the treatment and prevention of asbestos-related diseases” (University of Technology, Sydney, priority 2014, dated 2019)

Tested on: crocidolite-induced mesothelioma in MexTAg299 transgenic mice
Assay: Effect of CM on asbestos-induced mesothelioma in MexTAg299 mice (Example 2)
Settings: mouse, in vivo
Description: MexTAg299 transgenic mice are suitable for testing asbestos-induced mesothelioma with 100% incidence. MexTAg mice exposed to asbestos develop cancer that faithfully replicates key features of the pathogenesis of human mesothelioma.
Controls were normal saline (0.9%) or CM at 90 mg/kg (3 mice each).

clinoptilolite [CM]
Mesothelioma (number of mice): 0
